Test results as given in US9079930B2, “Substituted pyrimidines” (MERCK SHARP & DOHME CORP., priority 2011, dated 2015).

The compounds below were run against T1, FLAG-tagged full length PHD2 (Homo sapiens, UniProt Q9GZT9) (assay: PHD2 inhibition assay (time resolved fluorescence, HIF-1α peptide hydroxylation, VHL complex detection)). Details: 0.2 μM 2-oxoglutarate, 0.5 μM HIF-1α peptide.
T1 construct: FLAG-tagged full length PHD2 expressed in and purified from baculovirus-infected Sf9 cells; FLAG; made in house; host or cells: baculovirus-infected Sf9 cells
T1 sequence (Q9GZT9 whole entry): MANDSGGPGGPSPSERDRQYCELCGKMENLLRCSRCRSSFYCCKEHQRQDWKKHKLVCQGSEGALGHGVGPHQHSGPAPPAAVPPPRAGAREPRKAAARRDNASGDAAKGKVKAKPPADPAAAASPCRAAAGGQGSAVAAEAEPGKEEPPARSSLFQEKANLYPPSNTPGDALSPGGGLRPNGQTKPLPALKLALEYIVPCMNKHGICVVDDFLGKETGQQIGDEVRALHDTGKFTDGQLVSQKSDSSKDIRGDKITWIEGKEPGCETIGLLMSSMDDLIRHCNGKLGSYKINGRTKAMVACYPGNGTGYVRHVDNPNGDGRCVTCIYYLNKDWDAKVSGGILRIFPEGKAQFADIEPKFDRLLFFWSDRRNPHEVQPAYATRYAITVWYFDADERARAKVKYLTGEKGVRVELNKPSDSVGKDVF
Type: biochemical
Protocol: To each well of a 96-well plate was added 1 μL of test compound in DMSO and 20 μl of assay buffer (50 mM Tris pH 7.4/0.01% Tween-20/0.1 mg/ml bovine serum albumin/10 μM ferrous sulfate/i mM sodium ascorbate/20 μg/ml catalase) containing 0.15 μg/ml FLAG-tagged full length PHD2 expressed in and purified from baculovirus-infected Sf9 cells. After a 30 min preincubation at room temperature, the enzymatic reactions were initiated by the addition of 4 μL of substrates (final concentrations of 0.2 μM 2-oxoglutarate and 0.5 μM HIF-1α peptide biotinyl-DLDLEMLAPYIPMDDDFQL (SEQ ID NO: 1)). After 2 hr at room temperature, the reactions were terminated and signals were developed by the addition of a 25 μL quench/detection mix to a final concentration of 1 mM ortho-phenanthroline, 0.1 mM EDTA, 0.5 nM anti-(His)6 LANCE reagent (Perkin-Elmer Life Sciences), 100 nM AF647-labeled streptavidin (Invitrogen), and 2 μg/ml (His)6-VHL complex (S. Tan (2001) Protein Expr. Purif. 21, 224-234). The ratio of time resolved fluorescence signals at 665 and 620 nm was determined, and percent inhibition was calculated relative to an uninhibited control sample run in parallel.

Row | SMILES | IC50 [nM]
1 | CCOC(=O)C(C)NP(=O)(N[C@@H](C)C(=O)OCC)c1ccc(C(NC(=O)c2cnc(-c3ccccn3)nc2O)c2ccc(OC)cc2)cc1 (stereo in doubt) [Compound 1-1-3, (2S,2′S)-diethyl 2,2′-((4-((4-hydroxy-2-(pyridin-2-yl)pyrimidine-5-carboxamido)(4-methoxyphenyl)methyl)phenyl)phosphoryl)bis(azanediyl)dipropanoate] | 20 to 100
2 | CCOP(=O)(OCC)c1ccc(C(NC(=O)c2cnc(-c3ccccn3)nc2O)c2ccc(OC)cc2)cc1 (stereo not shown) [Compound 1-1-1, Diethyl 4-((4-hydroxy-2-(pyridin-2-yl)pyrimidine-5-carboxamido)(4-methoxyphenyl)methyl)phenylphosphonate] | 0.5 to 20
3 | COc1ccc(C(NC(=O)c2cnc(-c3ccccn3)nc2O)c2ccc(P(=O)(O)O)cc2)cc1 (stereo not shown) [Compound 1-1-2, 4-((4-hydroxy-2-(pyridin-2-yl)pyrimidine-5-carboxamido)(4-methoxyphenyl)methyl)phenylphosphonic acid] | 0.5 to 20
4 | CCOC(=O)C(C)(C)NP(=O)(NC(C)(C)C(=O)OCC)c1ccc(C(NC(=O)c2cnc(-c3ccccn3)nc2O)c2ccc(OC)cc2)cc1 (stereo not shown) [Compound 1-1-4, diethyl 2,2′-((4-((4-hydroxy-2-(pyridin-2-yl)pyrimidine-5-carboxamido)(4-methoxyphenyl)methyl)phenyl)phosphoryl)bis(azanediyl)bis(2-methylpropanoate)] | 0.5 to 20
5 | CCOC(=O)CNP(=O)(NCC(=O)OCC)c1ccc(C(NC(=O)c2cnc(-c3ccccn3)nc2O)c2ccc(OC)cc2)cc1 (stereo not shown) [Compound 1-1-5, diethyl 2,2′-((4-((4-hydroxy-2-(pyridin-2-yl)pyrimidine-5-carboxamido)(4-methoxyphenyl)methyl)phenyl)phosphoryl)bis(azanediyl)diacetate] | 20 to 100
6 | COc1ccc(C(NC(=O)c2cnc(-c3ccccn3)nc2O)c2ccc([PH](=O)O)cc2)cc1 (stereo not shown) [Compound 1-1-6, 4-((4-hydroxy-2-(pyridin-2-yl)pyrimidine-5-carboxamido)(4-methoxyphenyl)methyl)phenylphosphinic acid] | 0.5 to 20
7 | CCOP(=O)(OCC)c1ccc(C(NC(=O)c2cnc(-c3ccccn3)nc2O)c2ccccc2)cc1 (stereo not shown) [Compound 2-1, Diethyl 4-((4-hydroxy-2-(pyridin-2-yl)pyrimidine-5-carboxamido)(phenyl)methyl)phenyl phosphonate] | 0.5 to 20
8 | O=C(NC(c1ccccc1)c1ccc(P(=O)(O)O)cc1)c1cnc(-c2ccccn2)nc1O (stereo not shown) [Compound 2-2, 4-((4-hydroxy-2-(pyridin-2-yl)pyrimidine-5-carboxamido)(phenyl)methyl)phenyl phosphonic acid] | 0.5 to 20
9 | CCOP(=O)(O)c1ccc(C(NC(=O)c2cnc(-c3ccccn3)nc2O)c2ccccc2)cc1 (stereo not shown) [Compound 2-3, Ethyl 4-((4-hydroxy-2-(pyridin-2-yl)pyrimidine-5-carboxamido)(phenyl)methyl)phenylphosphonate] | 0.5 to 20
10 | CCOP(C)(=O)c1ccc(C(NC(=O)c2cnc(-c3ccccn3)nc2O)c2ccccc2)cc1 (stereo not shown) [Compound 2-4, ethyl 4-((4-hydroxy-2-(pyridin-2-yl)pyrimidine-5-carboxamido)(phenyl)methyl)phenyl(methyl)phosphinate] | 0.5 to 20
11 | CP(=O)(O)c1ccc(C(NC(=O)c2cnc(-c3ccccn3)nc2O)c2ccccc2)cc1 (stereo not shown) [Compound 2-5, 4-((4-hydroxy-2-(pyridin-2-yl)pyrimidine-5-carboxamido)(phenyl)methyl)phenyl(methyl)phosphinic acid] | 0.5 to 20
12 | CCOP(=O)(OCC)c1ccc(C(C)NC(=O)c2cnc(-c3ccccn3)nc2O)cc1 (stereo not shown) [Compound 3-1, Diethyl 4-(1-(4-hydroxy-2-(pyridin-2-yl)pyrimidine-5-carboxamido)ethyl)phenyl phosphonate] | 20 to 100
13 | CCOP(=O)(O)c1ccc(C(C)NC(=O)c2cnc(-c3ccccn3)nc2O)cc1 (stereo not shown) [Compound 3-3, Ethyl hydrogen 4-(1-(4-hydroxy-2-(pyridin-2-yl)pyrimidine-5-carboxamido)ethyl)phenylphosphonate] | 100 to 10000
14 | CC(NC(=O)c1cnc(-c2cccnn2)nc1O)c1ccc(P(=O)(O)O)cc1 (stereo not shown) [Compound 3-3a, 4-(1-(4-Hydroxy-2-(pyridazin-3-yl)pyrimidine-5-carboxamido)ethyl)phenylphosphonic acid] | 100 to 10000
15 | C[C@@H](NC(=O)c1cnc(-c2cccnn2)nc1O)c1ccc(P(=O)(O)O)cc1 [Compound 3-5a, (R)-4-(1-(4-hydroxy-2-(pyridazin-3-yl)pyrimidine-5-carboxamido)ethyl)phenylphosphonic acid] | 20 to 100
16 | C[C@H](NC(=O)c1cnc(-c2cccnn2)nc1O)c1ccc(P(=O)(O)O)cc1 [Compound 3-7a, (S)-4-(1-(4-hydroxy-2-(pyridazin-3-yl)pyrimidine-5-carboxamido)ethyl)phenylphosphonic acid] | 100 to 10000
17 | CCOP(=O)(OCC)c1ccc(C(NC(=O)c2cnc(-c3ccccn3)nc2O)c2ccccc2)cn1 (stereo not shown) [Compound 4-1, Diethyl 5-((4-hydroxy-2-(pyridin-2-yl)pyrimidine-5-carboxamido)(phenyl)methyl)pyridin-2-ylphosphonate] | 0.5 to 20
18 | CCOP(=O)(O)c1ccc(C(NC(=O)c2cnc(-c3ccccn3)nc2O)c2ccccc2)cn1 (stereo not shown) [Compound 4-2, Ethyl hydrogen 5-((4-hydroxy-2-(pyridin-2-yl)pyrimidine-5-carboxamido)(phenyl)methyl)pyridin-2-ylphosphonate] | 0.5 to 20
19 | CCOP(=O)(OCC)c1ccc(C(C)C(=O)Nc2cnc(-c3ccccn3)nc2O)cc1 (stereo not shown) [Compound 7-1, Diethyl 4-(1-(4-hydroxy-2-(pyridin-2-yl)pyrimidin-5-ylamino)-1-oxopropan-2-yl)phenyl phosphonate] | 100 to 10000

The next lines start with the values.

Row | IC50 [nM] | SMILES
20 | 100 to 10000 | CC(NC(=O)c1cnc(-c2ccccn2)nc1O)c1ccc(P(=O)(O)O)cc1 (stereo not shown) [Compound 3-2, 4-(1-(4-hydroxy-2-(pyridin-2-yl)pyrimidine-5-carboxamido)ethyl)phenylphosphonic acid]
21 | 100 to 10000 | C[C@@H](NC(=O)c1cnc(-c2ccccn2)nc1O)c1ccc(P(=O)(O)O)cc1 [Compound 3-5, (R)-4-(1-(4-hydroxy-2-(pyridin-2-yl)pyrimidine-5-carboxamido)ethyl)phenylphosphonic acid]
22 | 100 to 10000 | C[C@H](NC(=O)c1cnc(-c2ccccn2)nc1O)c1ccc(P(=O)(O)O)cc1 [Compound 3-7, (S)-4-(1-(4-hydroxy-2-(pyridin-2-yl)pyrimidine-5-carboxamido)ethyl)phenylphosphonic acid]
23 | 0.5 to 20 | COc1ccc(C(NC(=O)c2cnc(-c3ccccn3)nc2O)c2cccc(P(=O)(O)O)c2)cc1 (stereo not shown) [Compound 5-1, 3-((4-hydroxy-2-(pyridin-2-yl)pyrimidine-5-carboxamido)(4-methoxyphenyl)methyl)phenylphosphonic acid]
24 | 0.5 to 20 | CC(C)OP(=O)(OC(C)C)C(NC(=O)c1cnc(-c2ccccn2)nc1O)c1ccccc1 (stereo not shown) [Compound 6-1, Diisopropyl (4-hydroxy-2-(pyridin-2-yl)pyrimidine-5-carboxamido)(phenyl)methyl phosphonate]
25 | 20 to 100 | CC(C)OP(=O)(O)C(NC(=O)c1cnc(-c2ccccn2)nc1O)c1ccccc1 (stereo not shown) [Compound 6-2, Isopropyl Hydrogen (4-hydroxy-2-(pyridin-2-yl)pyrimidine-5-carboxamido)(phenyl)methylphosphonate]
